A short description of data set [1]: Displacement of [125]I-CCK-8 from CCK-B receptor in guinea pig cerebral cortex after 2 hrs by gamma counting. The format is tissue-based, Cavia porcellus.
For data set [2], the target named is T1, Cholecystokinin receptor type A (Rattus norvegicus, UniProt P30551).
T1 sequence (P30551 whole entry): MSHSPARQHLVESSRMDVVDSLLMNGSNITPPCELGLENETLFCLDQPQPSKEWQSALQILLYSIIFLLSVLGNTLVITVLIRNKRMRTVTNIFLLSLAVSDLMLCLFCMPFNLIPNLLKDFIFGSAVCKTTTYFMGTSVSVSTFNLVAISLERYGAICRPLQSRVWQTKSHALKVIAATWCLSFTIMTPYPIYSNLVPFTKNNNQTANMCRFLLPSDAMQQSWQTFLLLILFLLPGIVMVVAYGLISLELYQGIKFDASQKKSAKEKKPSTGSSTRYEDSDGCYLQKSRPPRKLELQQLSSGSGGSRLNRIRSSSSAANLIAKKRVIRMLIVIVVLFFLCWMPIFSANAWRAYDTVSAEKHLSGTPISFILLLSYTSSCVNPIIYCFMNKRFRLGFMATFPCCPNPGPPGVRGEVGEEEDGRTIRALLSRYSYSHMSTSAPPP
Description: Displacement of [125]I-CCK-8 from CCK-A receptor in rat pancreatic membrane after 2 hrs by gamma counting. The format is cell membranes.

A short description of data set [3]: Oral bioavailability in rat. The format is ADME, organism-based. Particulars: in vivo.
Data set [4] is described as follows: Half life in rat. Particulars: in vivo. The format is ADME, organism-based.
Data set [5] can be described thus: Antiproliferative activity against human MiaPaCa cells assessed as reduction in cell viability after 3 days by MTT assay. The format is functional, cell-based. Particulars: MIA PaCa-2, 72 h. In general terms: Formazan colour is commonly taken as a measure of viable cells.
Another data set relates to AGS. Description: Antiproliferative activity against human AGS cells assessed as reduction in cell viability after 3 days by MTT assay. The format is functional, cell-based. The settings on record: 72 h.
Data set [6] in a line: Antiproliferative activity against human PANC cells assessed as reduction in cell viability after 3 days by MTT assay. The format is functional, cell-based. The settings on record: 72 h.
Data set [7] is described as follows: Antiproliferative activity against human U373MG cells assessed as reduction in cell viability after 3 days by MTT assay. The format is functional, cell-based, U-373MG ATCC. The settings on record: U373 MG, 72 h.
For another data set, the system named is MAC13. Description: Antiproliferative activity against mouse MAC13 cells assessed as reduction in cell viability after 3 days by MTT assay. The format is functional, cell-based. Particulars: MAC13, 72 h.
Data set [8] has as its system MAC16. Description: Antiproliferative activity against mouse MAC16 cells assessed as reduction in cell viability after 3 days by MTT assay. The format is functional, cell-based. The settings on record: MAC16, 72 h.
Data set [9] deals with MAC16. Nature of the data set: Antitumor activity against mouse MAC16 cells xenografted in po dosed NSG mouse measured thrice weekly after compound dosage. The format is functional, organism-based.
In another data set the test system is MiaPaCa. Description: Antitumor activity against human MiaPaCa cells xenografted in po dosed NSG mouse measured thrice weekly after compound dosage. The format is functional, organism-based.
Data set [10] concerns MAC16. Description: Antimetastatic activity against mouse MAC16 cells xenografted in po dosed NSG mouse assessed as reduction of cell migration to lung measured thrice weekly after compound dosage. The format is functional, organism-based.
In data set [11] the target is T2, Cholecystokinin receptor type A (Rattus norvegicus) (UniProt P30551).
T2 sequence (whole entry): T1 sequence (P30551 whole entry)
Description: Antagonist activity at CCK1 receptor in rat duodenum assessed as inhibition of electrically stimulated contraction.

In data set [12] the target is T3, Cholecystokinin receptor type A (Cavia porcellus) (UniProt Q63931).
T3 sequence (whole entry): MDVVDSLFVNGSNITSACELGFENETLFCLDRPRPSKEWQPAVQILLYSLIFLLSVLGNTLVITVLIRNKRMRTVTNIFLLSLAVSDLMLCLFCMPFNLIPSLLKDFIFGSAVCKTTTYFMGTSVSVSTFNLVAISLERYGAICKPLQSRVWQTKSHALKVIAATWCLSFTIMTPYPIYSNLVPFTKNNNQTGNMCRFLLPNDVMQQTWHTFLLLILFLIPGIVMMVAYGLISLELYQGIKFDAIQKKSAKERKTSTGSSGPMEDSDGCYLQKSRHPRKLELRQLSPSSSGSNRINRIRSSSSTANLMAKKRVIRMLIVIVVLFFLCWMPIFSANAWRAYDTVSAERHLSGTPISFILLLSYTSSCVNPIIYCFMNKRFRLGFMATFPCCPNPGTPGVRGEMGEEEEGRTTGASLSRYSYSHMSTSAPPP
Description: Insurmountable antagonist activity at CCK1 receptor in guinea pig bladder assessed as inhibition of CCK8s induced contraction preincubated 10 mins followed by CCK8s addition.

Data set [13] concerns the target T4, Cholecystokinin receptor type A (Homo sapiens) (UniProt P32238).
T4 sequence (whole entry): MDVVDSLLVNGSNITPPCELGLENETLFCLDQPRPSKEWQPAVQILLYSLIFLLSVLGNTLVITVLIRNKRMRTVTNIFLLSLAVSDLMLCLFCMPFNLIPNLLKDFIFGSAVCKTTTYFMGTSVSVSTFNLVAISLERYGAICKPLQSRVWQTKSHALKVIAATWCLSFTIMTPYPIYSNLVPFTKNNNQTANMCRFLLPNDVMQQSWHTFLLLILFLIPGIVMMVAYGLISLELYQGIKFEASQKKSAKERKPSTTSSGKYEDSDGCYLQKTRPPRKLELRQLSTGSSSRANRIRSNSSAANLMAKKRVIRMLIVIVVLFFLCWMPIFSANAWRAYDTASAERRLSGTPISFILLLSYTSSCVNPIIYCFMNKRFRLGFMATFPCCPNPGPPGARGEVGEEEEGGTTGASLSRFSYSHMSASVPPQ
Description: […] activity at CCK1 receptor (unknown origin).

The nature of data set [14]: Potency index, ratio of lorglumide IC50 to compound IC50 for human MiaPaCa cells. The format is functional.

The source made the active and inactive calls. The rule behind the calls is not given here.

The term IC50 denotes the point on the concentration scale where inhibition reaches its midpoint. In data set [1], `O=C1C=C(Cl)C(O)(c2ccc(Cl)cc2)N1C1CCCC1` (stereo not drawn) showed an IC50 of 10000 nM.
`CN1C(=O)C=C(Cl)C1(O)c1ccc(Cl)cc1` (stereo not drawn): the results for the IC50 in data set [1] and in data set [2] were > 10000 nM and 2000 nM, respectively.
As to `O=C1C=C(Cl)C(O)(c2ccccc2)N1c1ccccc1` (stereo not drawn), the IC50 in data set [1] and in [2] was > 10000 nM throughout.
Turning to `O=C1C=C(Cl)C(O)(c2ccccc2)N1C1CC1` (stereo not drawn), the half-maximal inhibitory concentration (IC50) is > 10000 nM in data set [1] and 7500 nM in [2].
In the case of `CC(C)N1C(=O)C=C(Cl)C1(O)c1ccccc1` (stereo not drawn), the IC50 in data set [1] worked out at 900 nM; in data set [2], 200 nM.
As to `CCCCCCN1C(=O)C=C(Cl)C1(O)c1ccc(Cl)cc1` (stereo not drawn), the figures for the IC50 in [1] and in data set [2] were > 10000 nM and 3600 nM, respectively.
Consider `CC(C)N1C(=O)C=C(Cl)C1(O)c1ccc(Cl)cc1` (stereo not drawn), for which the results for the concentration for half-maximal inhibition (IC50) in data set [1] and in [2] were 3700 nM and 300 nM, respectively.
Taken in the same sequence, the figures for `O=C1C=C(Cl)C(O)(c2ccccc2)N1C1CCCCC1` (stereo not drawn) were > 10000 nM and > 10000 nM.
`O=C1C=C(Cl)C(O)(c2ccccc2)N1C1CCCC1` (stereo not drawn) displayed an IC50 in data set [1] of 840 nM.
Turning to `O=C1C=C(Cl)C(O)(c2ccc(Cl)cc2)N1C1CC1` (stereo not drawn), the IC50 was > 10000 nM in data set [1] and 4000 nM in [2].
By bioavailability is commonly meant dose-corrected exposure relative to a reference, in per cent. A high value points to good availability. One may read the half-life as the time in which the quantity being followed falls by half. Read a high half-life as slow loss. As for `CC(C)CN1C(=O)C=C(Cl)C1(O)c1ccc(F)cc1` (stereo not drawn), in [3], the bioavailability was 98%. This compound also had a half-life in [4] of 3.5 h. The concentration for half-maximal inhibition (IC50) amounted to 750 nM in data set [1]; 12 nM in data set [2]; 11 nM in data set [5]; 222 nM in the data set with AGS; 18 nM in data set [6]; 665 nM in data set [7]. In addition, the results for the IC50 with MAC13 and in the data set with MAC16 [8] were 508 nM and 76 nM, respectively. The TGI result with MAC16 [9] and in the data set on MiaPaCa was “Active” in each case. In addition, the outcome in the data set on MAC16 [10] was Active.
With `O=C1C=C(Cl)C(O)(c2ccccc2)N1Cc1ccccc1` (stereo not drawn), the IC50 in data set [1] worked out at 22 nM; in data set [2], 800 nM; in [5] it was 230 nM; in the data set with AGS, 53 nM; in data set [6], 674 nM; in data set [7], 23 nM. Further, the 50% inhibitory concentration (IC50) in the data set with MAC13 and with MAC16 [8] was > 1000 nM throughout.
In the case of `CC(C)CN1C(=O)C=C(Cl)C1(O)c1ccc(Cl)cc1` (stereo not drawn), the inhibition result in data set [11] and in [12] was “Dose-dependent effect” in each case. Further, the concentration for half-maximal inhibition (IC50) is 400 nM in data set [1]; 8 nM in [2]; 13 nM in data set [5]; 242 nM with AGS; 22 nM in [6]; 475 nM in data set [7]. Moreover, the IC50 was found to be 526 nM in the data set on MAC13 and 86 nM in the data set on MAC16 [8].
With `CN1C(=O)C(NC(=O)c2cc3ccccc3[nH]2)N=C(c2ccccc2)c2ccccc21` (stereo not drawn), the 50% inhibitory concentration (IC50) in data set [5] was 1200 nM; in the data set on AGS, > 5000 nM; in data set [6] it was 480 nM; in [7] it was > 5000 nM; in the data set on MAC13 it was 1100 nM; in the data set with MAC16 [8], 1000 nM. Besides, the result in [13] was Active.
As for `CC(C)(C)N1C(=O)C=C(Cl)C1(O)c1ccccc1` (stereo not drawn), the concentration for half-maximal inhibition (IC50) in data set [1] was 900 nM; in data set [2], 120 nM.
Take `CC(C)CN1C(=O)C=C(Cl)C1(O)c1ccccc1` (stereo not drawn): the half-maximal inhibitory concentration (IC50) was determined as 1200 nM in data set [1]; 20 nM in data set [2]; 15 nM in data set [5]; 262 nM in the data set on AGS; 27 nM in data set [6]; 765 nM in [7]. The IC50 with MAC13 amounted to 536 nM; in the data set on MAC16 [8], 96 nM. For the same compound, the TGI result with MAC16 [9] and with MiaPaCa was “Active” throughout. Further, in [14], the “Ratio IC50” value is on record as 20. The result in the data set on MAC16 [10] was Active.
For `CCCCCCN1C(=O)C=C(Cl)C1(O)c1ccccc1` (stereo not drawn), the IC50 in data set [1] was > 10000 nM; in [2] it was 4500 nM.
In the case of `CCCCCN(CCCCC)C(=O)C(CCC(=O)O)NC(=O)c1ccc(Cl)c(Cl)c1` (stereo not drawn) [LORGLUMIDE SODIUM], the IC50 in data set [1] was > 10000 nM; in data set [2] it was 170 nM; in data set [5] it was 425 nM; in the data set with AGS it was 289 nM; in data set [6] it was 316 nM; in data set [7] it was > 5000 nM. Besides, the IC50 in the data set on MAC13 amounted to 421 nM; with MAC16 [8] it was 861 nM.
For the compound `Cc1cccc(NC(=O)N[C@@H]2N=C(c3ccccc3)c3ccccc3N(C)C2=O)c1` [L-365260], the IC50 is > 5000 nM in data set [5]; 675 nM in the data set with AGS; > 1000 nM in data set [6]; 541 nM in data set [7]; > 5000 nM in the data set with MAC13; > 5000 nM in the data set with MAC16 [8].
Take `CN1C(=O)C=C(Cl)C1(O)c1ccccc1` (stereo not drawn): the half-inhibitory concentration (IC50) is > 10000 nM in data set [1] and 2500 nM in data set [2].
